In brackets after ≈: the same amount, converted by molar mass.
What was measured:
[1] = test system: isolated polymorphonuclear neutrophils (PMNs); assay: Oxidative burst assay (luminol-enhanced chemiluminescence), isolated PMNs; type: cell-based; details: Polymorphonuclear neutrophil, isolated human PMNs, zymosan, three doses 1, 10, 100 μg/mL, mean ± SD of three, read-out: Oxidative Burst Inhibition (IC50) PMNs
Text: Heparinized blood was obtained by vein puncture aseptically from healthy volunteers. The PMNs were isolated by ficoll-Hypaque density gradient method. The cells were isolated after centrifugation from the tube base. Cells were washed twice and suspended in Hank’s Balance salt solution (HBSS^--) (Ca^2+ and Mg^2+ free), RBCs were lysed using hypotonic solution. Cells were adjusted to their required concentration (1x10^6 cells/mL) using HBSS^++containing Ca^2+ and Mg^2+.
Luminol-enhanced chemiluminescence assay was performed, as described by Helfandet al., 1982 [17], with some modifications. Briefly 25 μL of diluted whole blood in HBSS^++ (Hanks Balanced Salt Solution, containing calcium chloride and magnesium chloride) [Sigma, St. Louis, USA] was incubated with 25 μL of three different concentrations of compounds (1, 10, and 100 μg/mL), each in triplicate. Control wells received HBSS^++ and cells, but no compounds. Test was performed in white half area 96-well plates [Costar, NY, USA], which was incubated at 37 °C for 15 minutes in the thermostat chamber of luminometer [Labsystems, Helsinki, Finland]. After incubation, 25 μL of serum opsonized zymosan (SOZ) [Fluka, Buchs, Switzerland] and 25 μL of intracellular reactive oxygen species detecting probe, luminol [Research Organics, Cleveland, OH, USA] were added into each well, except blank wells (containing only HBSS^++). The level of the ROS was recorded in luminometer in term of relative light units (RLU).

[2] = test system: nitric oxide (NO) production from LPS activated J774.2 mouse macrophages; assay: Nitric oxide production (Griess), LPS activated macrophages; type: cell-based; details: J774.2 cells, 30 μg/mL LPS, three doses 1, 10, 100 μg/mL, mean ± SD of three, read-out: NO Inhibition (IC50)
Method: The mouse macrophage cell line J774.2 (European Collection of Cell Cultures, UK) was cultured in 75 cc flasks IWAKI (Asahi Techno Glass, Japan) in DMEM Sigma-Aldrich (Steinheim, Germany) supplemented with 10% fetal bovine serum GIBCO (New York, USA)1% streptomycin/penicillin. Flasks were kept at 37 °C in atmosphere of humidified air containing 5% CO2, cells were seeded in 96-well plate (10^6 cells/mL) and were induced by 30 μg/mL e. coli lipopolysaccharide (LPS) (DIFCO Laboratories michigon, USA). The test compounds were added at concentrations of (1, 10 and 100 μg/mL) and plate was incubated at 37 °C in 5% CO2. Nitrite accumulation in culture supernatant was measured using the Griess reagents as described previously.

MTT cytotoxicity assay = type: cell-based, mouse; details: mouse; for IC50: MTT, 48 hours, read-out: Cytotoxicity NIH-3T3 cell line (IC50)
Method: The cytotoxicity was recorded as concentration causing 50% growth inhibition (IC50).

[3] = test system: Bacillus subtilis (ATCC 6633); assay: Microplate Alamar Blue Assay, Bacillus subtilis; type: cell-based; details: ATCC6633, 200 μg/mL, NI = No inhibition, read-out: Percentage (%) Inhibition, Bacillus subtilis
Method: The anti-bacterial activity of synthesized compound were evaluated by the Microplate Alamar Blue Assay. Staphylococcus aureus (ATCC 25923), Pseudomonas aeruginosa(POA 286), Salmonella typhi (ATCC 14028), Bacillus subtilis ATCC 6633) and Escherichia coli (ATCC 12022) were used in this study as a standard bacterial strains and they were obtained from microbial bank of PCMD, International Center for Chemical and Biological Sciences, University of Karachi, Karachi-75270, Pakistan. The bacterial colonies grown in Trypton Soya Agar (TSA) (Oxoid Limited, UK) were inoculated in Mueller Hinton Broth (MHB) (Oxoid Limited, UK) and incubated overnight at 37 °C. Fully grown bacterial cultures were then diluted to adjust with 0.5 McFarland Turbidity Index (equivalent to 1.5 × 10^8 CFU/mL). Stock solutions (4 mg/mL) of different test compounds were prepared in DMSO and 10μL each of these stock solutions were placed in well of flat bottom, polystyrene, sterile 96-wells plate except the positive control wells (media + bacteria). This gives 200μg/mL concentrations of compounds in final 200 μL solution. Each compound was run in triplicates. Finally, bacterial suspension (5 x 10^6 CFU/mL) was added in each well. Plates were sealed by parafilm and incubated at 37 °C for 18–22 hrs. Next day, 20 μL of 0.02% resazurin sodium salt dye (Chem-Impex-Int’LInc) was added in each well and incubated in shaking incubator at 80 rpm, 37 °C for 2–3 hrs. The color change from blue to reddish pink indicates the growth of bacteria. For quantitative analysis, plates were read at 570 nm and 600 nm in Multiskan GOmicroplate spectrophotometer, (Thermo Scientific, USA). The % inhibition of bacterial growth was calculated using below mentioned formula.
For the calculation of the % difference in reduction between treated and control cells in cytotoxicity/proliferation assays: =(εOX)λ2Aλ1-(εOX)λ1Aλ2oftestagent/(εOX)λ2A°λ1-(εOX)λ1A°λ2ofpositivegrowthcontrol×100

Structure (SMILES)	IC50 [1]	IC50 [2]	IC50 (MTT cytotoxicity assay)	inhibition at 200 µg/mL [3]	IC50 at 48 h (MTT cytotoxicity assay)
Cc1cc(C)nc(NS(=O)(=O)c2ccc(NC(=O)C(Br)CBr)cc2)n1 (stereo not drawn) [Compound 3, 2,3-Dibromo-N-(4-(N-(4,6-dimethylpyrimidin-2-yl)sulfamoyl)phenyl)propanamide]	3.6 ± 0.05 µg/mL	< 1 µg/mL	> 30 µM	< 0%	–
Cc1cc(C)nc(NS(=O)(=O)c2ccc(NC(=O)c3cccc(CCl)c3)cc2)n1 [Compound 4, 3-(Chloromethyl)-N-(4-(N-(4,6-dimethylpyrimidin-2-yl)sulfamoyl)phenyl)benzamide]	6.1 ± 0.08 µg/mL	< 1 µg/mL	> 30 µM	< 0%	–
Cc1cc(C)nc(NS(=O)(=O)c2ccc(NC(=O)c3ccc(CCl)cc3)cc2)n1 [Compound 5, 4-(Chloromethyl)-N-(4-(N-(4,6-dimethylpyrimidin-2-yl)sulfamoyl)phenyl)benzamide]	3 ± 0.06 µg/mL	6.9 ± 1.9 µg/mL (≈ 16 µM)	> 30 µM	< 0%	–
Cc1cc(C)nc(NS(=O)(=O)c2ccc(NC(=O)c3cc(C(F)(F)F)cc(C(F)(F)F)c3)cc2)n1 [Compound 6, N-(4-(N-(4,6-dimethylpyrimidin-2-yl)sulfamoyl)phenyl)-3,5-bis(trifluoromethyl)benzamide]	3.4 ± 0.1 µg/mL	7.8 ± 0.3 µg/mL (≈ 15 µM)	> 30 µM	< 0%	–
Cc1cc(C)nc(NS(=O)(=O)c2ccc(NC(=O)c3cc(F)cc(F)c3)cc2)n1 [Compound 7, N-(4-(N-(4,6-dimethylpyrimidin-2-yl)sulfamoyl)phenyl)-3,5-difluorobenzamide]	2.9 ± 0.3 µg/mL	8 ± 0.3 µg/mL (≈ 19.1 µM)	> 30 µM	< 0%	–
Cc1cc(C)nc(NS(=O)(=O)c2ccc(NC(=O)c3cc(F)cc(C(F)(F)F)c3)cc2)n1 [Compound 8, N-(4-(N-(4,6-dimethylpyrimidin-2-yl)sulfamoyl)phenyl)-3-fluoro-5-(trifluoromethyl)benzamide]	2.4 ± 0.07 µg/mL	7.3 ± 0.3 µg/mL (≈ 15.6 µM)	> 30 µM	< 0%	–
Cc1cc(C)nc(NS(=O)(=O)c2ccc(NC(=O)c3ccc(C(F)(F)F)c(F)c3)cc2)n1 [Compound 9, N-(4-(N-(4,6-dimethylpyrimidin-2-yl)sulfamoyl)phenyl)-3-fluoro-4-(trifluoromethyl)benzamide]	2.8 ± 0.05 µg/mL	7.3 ± 0.4 µg/mL (≈ 15.6 µM)	> 30 µM	< 0%	–
Cc1cc(C)nc(NS(=O)(=O)c2ccc(NC(=O)c3ccc(F)c(C(F)(F)F)c3)cc2)n1 [Compound 10, N-(4-(N-(4,6-dimethylpyrimidin-2-yl)sulfamoyl)phenyl)-4-fluoro-3-(trifluoromethyl)benzamide]	3.4 ± 0.4 µg/mL	7.3 ± 0.2 µg/mL (≈ 15.6 µM)	> 30 µM	< 0%	–
Cc1cc(C)nc(NS(=O)(=O)c2ccc(NC(=O)C(C)Cl)cc2)n1 (stereo not drawn) [Compound 11, 2-Chloro-N-(4-(N-(4,6-dimethylpyrimidin-2-yl)sulfamoyl)phenyl)propanamide]	6.2 ± 0.13 µg/mL	26.3 ± 1.8 µg/mL (≈ 71.3 µM)	> 30 µM	35.1%	–
Cc1cc(C)nc(NS(=O)(=O)c2ccc(NC(=O)c3ccc(F)cc3)cc2)n1 [Compound 12, N-(4-(N-(4,6-dimethylpyrimidin-2-yl)sulfamoyl)phenyl)-4-fluorobenzamide]	3.3 ± 0.05 µg/mL	10.8 ± 2.1 µg/mL (≈ 27 µM)	> 30 µM	< 0%	–
Cc1cc(C)nc(NS(=O)(=O)c2ccc(NC(=O)c3cccc([N+](=O)[O-])c3)cc2)n1 [Compound 13, N-(4-(N-(4,6-dimethylpyrimidin-2-yl)sulfamoyl)phenyl)-3-nitrobenzamide]	4.9 ± 0.2 µg/mL	10.9 ± 0.5 µg/mL (≈ 25.5 µM)	> 30 µM	< 0%	–
Cc1cc(C)nc(NS(=O)(=O)c2ccc(N)cc2)n1 [compound 1, Sulfamethazine, reference compound]	5.2 ± 0.05 µg/mL	18.9 ± 1.7 µg/mL (≈ 67.9 µM)	–	< 0%	> 30 µM
